Measurements reported in patent publication US11951092B2, “Agent for preventing or treating brain atrophy” (FUJIFILM Toyama Chemical Co., Ltd., priority 2017, dated 2024).

Legend:
[1] = tested on: mild to moderate AD patients (brain volume: whole brain, hippocampus, 101 areas); test: Test Example 1: Phase II placebo-controlled trial, brain volume change by volumetric MRI; assay type: in vivo, human; conditions: for Change in brain volume, Hippocampus, Least square means / Change in brain volume, Whole brain, Least square means / Change in brain volume, Hippocampus, Difference from placebo group / Change in brain volume, Whole brain, Difference from placebo group: vMRI at week 52 from baseline
Source text: Multicenter Randomized Double-Blind Phase II Placebo-Controlled Trial for Assessing Effectiveness and Safety of Compound A in Mild to Moderate AD Patients Subject (selection criteria): Patients were screened in a period from 42 days before treatment assignment to the assignment based on the following selection criteria.
Patients who were probable AD and are 55 years old or older and 85 years old or younger at the time of obtaining consent of screening.
Patients with an MMSE score of 12 to 22 at the time of screening
(§1) Patients with a Modified Hachinski Ischemia Scale score of 4 or less
Patients who have been treated with a donepezil hydrochloride or rivastigmine transdermal system for at least 4 months before the baseline and with a stable dose thereof for 3 months before the baseline.
In the case of patients who have received memantine in addition to being treated with a donepezil hydrochloride or rivastigmine transdermal system, patients who have been treated with memantine for at least 4 months before the baseline and with a stable dose thereof for 3 months before the baseline.
Patients whose brain MRI or CT results match AD at the time of screening
Organization of groups: Patients matched (484 patients) were randomly divided into the following 3 groups and the trial was started.
(1) High dose group: 224 mg of a test compound (160 mg in terms of Compound A) was orally administered once a day for 4 weeks and then 448 mg of a test compound (320 mg in terms of Compound A) was orally administered once a day for 48 weeks (158 patients)
(2) Low dose group: 224 mg of a test compound (160 mg in terms of Compound A) was orally administered once a day for 52 weeks (166 patients)
(3) Placebo group: placebo was orally administered once a day for 52 weeks (158 patients)
(§2) Brain volume of subjects was measured by vMRI scan at the screening and after 52 weeks, and the volume change of the whole brain and the hippocampus of the subjects were quantified to assess brain atrophy based on the change from the screening.
Furthermore, volume change of the whole brain and 101 areas (obtained by dividing the areas existing in both the left brain and the right brain of the Brodmann areas (1 to 52) into 101 areas) in each subject was quantified to assess brain atrophy based on the change from the screening.
Changes in the volume of the whole brain and the hippocampus after 52 weeks from the baseline were compared between the high dose group and the placebo group, and between the low dose group and the placebo group based on Mixed-effect Models. For models, the treatment groups were included as a fixed effect, age, baseline of the respective brain volumes (the whole brain or the hippocampus), baseline of MMSE and ApoE4 genotype (positive/negative) were included as covariates, and trial sites were included as a random effect.
Furthermore, changes in the respective volumes of the whole brain and the 101 areas after 52 weeks from the baseline were compared between the high dose group and the placebo group, and between the low dose group and the placebo group.

[2] = tested on: mild to moderate AD patients (brain volume: whole brain, hippocampus); test: Test Example 2: Early Phase II placebo-controlled trial, brain volume change by volumetric MRI; assay type: in vivo, human
Source text: Multicenter Randomized Double-Blind Early Phase II Placebo-Controlled Trial for Assessing Effectiveness and Safety of Compound A in Mild to Moderate AD Patients
Patients were screened in a period from 28 days before treatment assignment to the assignment based on the following selection criteria. Patients matched (373 patients) were randomly divided into the following 2 groups and the trial was started.
Patients who were probable AD and over or 50 years old or older and 90 years old or younger at the time of obtaining consent of screening.
Patients with an MMSE score of 15 to 24 at the time of screening
as §1
Patients who have been treated with a donepezil hydrochloride for at least 6 months before the baseline and with a stable dose thereof for 3 months before the baseline.
Patients whose brain MRI or CT results match AD at the time of screening Organization of groups:
(1) Active drug group: 224 mg of a test compound (160 mg in terms of Compound A) was orally administered once a day for 52 weeks (176 patients)
(2) Placebo group: placebo was orally administered once a day for 52 weeks (178 patients) Method of assessment:
as §2
The mean amount of volume change of the whole brain and the hippocampus after 52 weeks from the baseline, standard deviation and the difference from the placebo group were calculated.

[3] = Compound A group vs placebo group, week 52 from baseline
[4] = High dose group (160 mg for 4 weeks then 320 mg in terms of Compound A, oral once a day, 48 weeks)
[5] = Low dose group (160 mg in terms of Compound A, oral once a day, 52 weeks)
[6] = Low dose (active drug) group, 160 mg in terms of Compound A oral once a day, 52 weeks, vMRI at week 52 from baseline
[7] = Low dose (active drug) group, vMRI at week 52 from baseline

## OC1CN(CCCOCCc2ccc3sccc3c2)C1 [Compound A, 1-(3-(2-(1-benzothiophen-5-yl)ethoxy)propyl)azetidin-3-ol]
[1]; [3]
  Change in the volume of the whole brain and the hippocampus versus placebo group (in words): volume reduction tended to be smaller
[1]; Compound A high dose group, analysis of whole brain and 101 areas
  Volume reduction of the whole brain and the hippocampus versus placebo group (in words): same tendency as in the low dose group was observed
[1]; Compound A low dose group, analysis of whole brain and 101 areas (Nos. 6 and 14 in Table 2)
  Volume reduction of the whole brain and the hippocampus versus placebo group (in words): tended to be suppressed
[1]; [4]
  Change in brain volume, Hippocampus, Least square means: -0.31 mL
  Change in brain volume, Whole brain, Least square means: -20.05 mL
[1]; High dose group
  Change in brain volume, Hippocampus, Difference from placebo group: 0.08 mL
  Change in brain volume, Whole brain, Difference from placebo group: 3.94 mL
[1]; [5]
  Change in brain volume, Hippocampus, Least square means: -0.27 mL
  Change in brain volume, Whole brain, Least square means: -21.37 mL
[1]; Low dose group
  Change in brain volume, Hippocampus, Difference from placebo group: 0.12 mL
  Change in brain volume, Whole brain, Difference from placebo group: 2.63 mL
[1]; Low dose group, week 52 from baseline, whole brain and 101 areas analysis
  Change in brain volume, Mean value, Right-Cerebellum-White-Matter: −0.89
[2]; [3]
  Change in the volume of the whole brain and the hippocampus versus placebo group (in words): volume reduction tended to be smaller
[2]; [6]
  Change in brain volume, Hippocampus, Mean change: -0.21 mL
  Change in brain volume, Whole brain, Mean change: -3.83 mL
[2]; [7]
  Change in brain volume, Hippocampus, Difference from placebo group: 0.09 mL
  Change in brain volume, Whole brain, Difference from placebo group: 3.41 mL
